Measured values published in US6184374A, “Targeted cytotoxic anthracycline analogs” (priority 1998, dated 2001).
Where two headings read alike, the source gives them in different places. Where a SMILES comes first, the peptide text is derived from it. Bridges are numbered along the chain shown (N, C = ends). [ ]: non-standard residue; d: D form.

Tests used:
[1] = test system: MCF-7 human mammary carcinoma cell line; type: cell-based
Description: (§1) MXT estrogen-independen mouse mammary carcinoma cell line was obtained from Dr. Gunter Berndhart, University of Regensburg, Germany. All the other cell lines used in the determination of the antiproliferative activity of the compounds of this invention were obtained from the American Type Culture Collection (ATCC).
(§2) For the evaluation of the activity of the analogs, a colorimetric cytotoxicity assay in microtitration plates was used based on quantification of biomass by staining cells with crystal violet, which correlates very well with determination of cell numbers. (Reile et al.; Anal. Biochem. 187, 262-267, 1990; Bernhardt G. et al, J. Cancer Res. Clin. Oncol. (1992), 118, 35-43; Spruss Th. et al, J. Cancer Res. Clin. Oncol 117, 435-443, 1991; Gillies, R. J., Anal. Biochem. 159, 109-113, 1986; Kueng, W. et al.; Anal. Biochem., 182 16-19, 1989.)
(§3) One to two days after seeding cells in 96-well plates the culture medium is exchanged with fresh medium containing the compounds to be tested and fresh medium only for the control cultures. After varying time of incubation, cells are fixed with glutaric dialdehyde and stored under […] at 4° C. until the end of the experiment. Cells are stained with crystal violet and bound stain is extracted with 70% aqueous EtOH. Optical density is measured with EIA Reader (Bio-Tek Instruments) or Biomek 1000 (Beckman) at 590 nm or 600 nm, respectively. Each data point represents the mean value of eight culture wells. T/C values are calculated as T/C=(T-C0)/(C-C0) where T=optical density of treated cultures, C=optical density of control (untreated) cultures, C0 =optical density of cultures at the start of incubation (t=0).
Cells were incubated in IMEM media containing 5% Hl:DCC-FBS (heat inactivated dextran coated charcoal treated fetal bovine serum) on 96 well plates. Relative cell number in treated and control plates was determined by the crystal violet staining method and was expressed as T/C values where T/C=T-C0 /C-C0×100 [T=absorbance of treated cultures, C= absorbance of control cultures, C0 =absorbance of cultures at the start of incubation (t=0). The measured absorbance is proportionate to the cell number.]

[2] = test system: estrogen independent MXT mouse mammary cancers; assay: Effect of cytotoxic LH-RH analogs on estrogen independent MXT mouse mammary cancers (KS-47); type: in vivo
Experimental: MXT (3.2) ovex tumor pieces (1 mm^3) were transplanted in female B6 D2 F1 mice. The treatment started one day after transplantation and was continued for 12 days by i.p. injections once a day. Tumors were measured on days 10, 14 and 18, and tumor volume was calculated.

[3] = test system: estrogen independent MXT mouse mammary cancers; assay: Earlier experiment with Q2 daily dosing (tumor growth, survival)
[4] = test system: growth hormone release from superfused rat pituitary cells; assay: Inhibition of hGH-RH(1-29)NH2 induced GH release, rat pituitary superfusion system; type: cell-based
Experimental: Accordingly, this method was used to compare the cytotoxic somatostatin analogs of the present invention to their parent carrier molecules with respect to their hormonal activities.
In rat pituitary superfusion system, the somatostatin analogs were administered for 3 min at 1 nM dose simultaneously with 1 nM hGH-RH(1-29)NH2. The infusion of the somatostatin analogs was maintained for another 6 min. GH responses to 3 min administration of 1 nM hGH-RH(1-29)NH2 were determined during the perfusion of the somatostatin analogs (0 min) and 30, 60 and 90 min after the administration stopped.

[5] = test system: MIIA PaCa-2 Human Pancreatic Cancer Cell Line; assay: Growth of MIIA PaCa-2 cells in vitro (crystal violet T/C); type: cell-based
Description: as §2, §3
Cells were incubated in RPMI 1640 media containing 10% fetal bovine serum on 96 well plates. [drawing 8]

[6] = test system: CFPAC-1 Human Pancreatic Cancer Cell; assay: Growth of CFPAC-1 cells in vitro (crystal violet T/C); type: cell-based
Description: as §2, §3

[7] = test system: estrogen independent MXT mouse mammary cancers; assay: Single treatment of estrogen independent MXT mouse mammary cancers (KS-55); type: in vivo
Experimental: In order to determine the maximum tolerated doses and compare the effects, MXT (3.2) ovex tumor pieces (1 mm^3) were implanted s.c. in female B6 D2 F1 mice. One day after transplantation the mice were randomly divided into groups of five animals and they were treated with a single injection i.p. The groups and doses are shown in the Table 25-1. […] The compounds were dissolved in 0.1% TFA (pH: 2.0). Tumor volume was measured on days 10, 13, 17, and 20.

[8] = test system: estrogen independent MXT mouse mammary cancers; assay: Treatment of estrogen independent MXT mouse mammary cancers (KS-49); type: in vivo; conditions: for Average survival: 520 nmol/inj. i.p., 3 weeks, total 1560 nmol (Group 13)
Description: In order to compare the tumor inhibitory activity of cytotoxic doxorubicin derivative, Q6 and its targeted cytotoxic peptide conjugate, Q6^14 gL as well as the well known antineoplastic agent, DOX and to determine the optimal way of administration and the nontoxic doses, LH-RH receptor positive MXT (3.2) ovex tumor pieces (1 mm^3) were implanted s. c. in female B6 D2 F1 mice. One day after transplantation the mice were randomly divided into groups of five animals and the treatment started. The compounds were dissolved in 0.1% trifluoroacetic acid (pH 2) and given intraperitoneally.

[9] = test system: MXT estrogen independent mouse mammary carcinoma cell line; assay: In vitro cytotoxic activity, crystal violet colorimetric assay on MXT; type: cell-based
Description: as §1, §2, §3

[10] = Table 17-1, 10^-8 M; incubation 70 hr
[11] = Table 17-1, 10^-8 M; incubation 120 hr
[12] = Table 17-1; 3 × 10^-8 M; incubation 70 hr
[13] = Table 17-1; 3 × 10^-8 M; incubation 120 hr
[14] = Table 17-1; 10^-8 M; incubation 70 hr
[15] = Table 17-1; 10^-8 M; incubation 120 hr
[16] = daily dose of 30 nmol (equimolar) i.p. for 12 days
[17] = 0 min (during perfusion of 1 nM somatostatin analog), percentage of GH release before analog
[18] = 30 min after infusion of 1 nM somatostatin analog
[19] = 60 min after infusion of 1 nM somatostatin analog
[20] = single i.p. injection 650 nmol/20 g
[21] = single i.p. injection 700 nmol/20 g
[22] = single i.p. injection 750 nmol/20 g

COc1cccc2c1C(=O)c1c(O)c3c(c(O)c1C2=O)C[C@@](O)(C(=O)CO)C[C@@H]3O[C@H]1C[C@H](N2CCCC2)[C@H](O)[C@H](C)O1.O=C(O)C(F)(F)F [Compound Q2, 3'-deamino-3'-(pyrrolidine-1"-yl)doxorubicin]
T/C Value [1, 10]: -26 | T/C Value [1, 11]: -19 | T/C Value [1, 12]: 25 | T/C Value [1, 13]: 17 | T/C Value [1, 14]: 97 | T/C Value [1, 15]: 94 | Effect on tumor growth [2, 16]: strong inhibitory effect on tumor growth | Mean survival after transplantation [2, 16]: 17.9 days | Mean tumor volume on day 10 [2, 16]: 153 mm^3 | Mean tumor volume on day 14 [2, 16]: 144 mm^3 | Mean tumor volume on day 18 [2, 16]: 137 mm^3 | Toxicity ([2]; daily dose of 30 nmol i.p. for 12 days): severe toxicity | Effect on tumor growth ([3]; 20 nmol daily dose for 17 days): only a moderate inhibitory effect on tumor growth | Mean survival ([3]; 40 nmol dose): 14.6 days | Toxicity ([3]; 40 nmol dose): toxic

C[C@@H](O)[C@H](NC(=O)[C@@H]1CSSC[C@H](NC(=O)[C@H](N)Cc2c[nH]c3ccccc23)C(=O)N[C@@H](Cc2ccccc2)C(=O)N[C@H](Cc2c[nH]c3ccccc23)C(=O)N[C@@H](CCCCN)C(=O)N[C@@H]([C@@H](C)O)C(=O)N1)C(N)=O [Compound S-98] (H-[dW]CF[dW]KTCT-NH2; disulfide 2-7)
GH release induced by 3 min administration of 1 nM hGH-RH(1-29)NH2 [4, 17]: 2.9% | GH release induced by 3 min administration of 1 nM hGH-RH(1-29)NH2 [4, 18]: 94.7% | GH release induced by 3 min administration of 1 nM hGH-RH(1-29)NH2 [4, 19]: 117.6% | T/C Value ([5]; 10^-6 M, incubation 28 h): 96 | T/C Value ([5]; 10^-6 M, incubation 76 h): 98

COc1cccc2c1C(=O)c1c(O)c3c(c(O)c1C2=O)C[C@@](O)(C(=O)CO)C[C@@H]3O[C@H]1C[C@H](N)[C@H](O)[C@H](C)O1 [Doxorubicin, doxorubicin]
T/C Value ([6]; 3 × 10^-7 M, incubation 66 h): 15 | T/C Value ([6]; 3 × 10^-7 M, incubation 95 h): 10 | T/C Value ([6]; 3 × 10^-7 M, incubation 137 h): 7 | T/C Value ([6]; 3 × 10^-8 M, incubation 66 h): 88 | T/C Value ([6]; 3 × 10^-8 M, incubation 95 h): 73 | T/C Value ([6]; 3 × 10^-8 M, incubation 137 h): 49 | T/C Value ([6]; 10^-6 M, incubation 66 h): -7 | T/C Value ([6]; 10^-6 M, incubation 95 h): -6 | T/C Value ([6]; 10^-6 M, incubation 137 h): -4 | T/C Value ([6]; 10^-7 M, incubation 66 h): 52 | T/C Value ([6]; 10^-7 M, incubation 95 h): 32 | T/C Value ([6]; 10^-7 M, incubation 137 h): 20 | T/C Value ([5]; 10^-6 M, incubation 28 h): -28 | T/C Value ([5]; 10^-6 M, incubation 76 h): -7 | T/C Value ([5]; 10^-7 M, incubation 28 h): 64 | T/C Value ([5]; 10^-7 M, incubation 76 h): 10 | T/C Value ([5]; 10^-8 M, incubation 28 h): 95 | T/C Value ([5]; 10^-8 M, incubation 76 h): 71 | T/C Value [1, 10]: 54 | T/C Value [1, 11]: 33 | T/C Value [1, 12]: 82 | T/C Value [1, 13]: 66 | T/C Value [1, 14]: 98 | T/C Value [1, 15]: 95 | T/C Value on MCF-7 Cell Line ([1]; Table 18-1; 3 × 10^-8 M; 70 hr): 82 | T/C Value on MCF-7 Cell Line ([1]; Table 18-1; 3 × 10^-8 M; 120 hr): 66 | T/C Value on MCF-7 Cell Line ([1]; Table 18-1; 10^-7 M; 70 hr): 54 | T/C Value on MCF-7 Cell Line ([1]; Table 18-1; 10^-7 M; 120 hr): 33 | T/C Value on MCF-7 Cell Line ([1]; Table 18-1; 10^-8 M; 70 hr): 98 | T/C Value on MCF-7 Cell Line ([1]; Table 18-1; 10^-8 M; 120 hr): 95 | Suppression of tumor growth ([7]; dose of 650 nmol/20 g mouse (as printed in text)): significantly less effective | Toxicity ([7]; single dose of 650 nmol/20 g mouse (as printed in text)): highly toxic | Average survival [7, 20]: 13.6 days | Number of tumorous mice/number of surviving mice Day 10 [7, 20]: 3/3 | Number of tumorous mice/number of surviving mice Day 13 [7, 20]: 2/2 | Number of tumorous mice/number of surviving mice Day 17 [7, 20]: 1/1 | Number of tumorous mice/number of surviving mice Day 20 [7, 20]: 1/1 | Average survival [7, 21]: 15.2 days | Number of tumorous mice/number of surviving mice Day 10 [7, 21]: 2/3 | Number of tumorous mice/number of surviving mice Day 13 [7, 21]: 2/3 | Number of tumorous mice/number of surviving mice Day 17 [7, 21]: 2/2 | Average survival [7, 22]: 7.8 days | Number of tumorous mice/number of surviving mice Day 10 [7, 22]: 1/1 | Average survival [8]: 20 days | Average survival ([8]; listed as DOX): 20.0 days | Eradication of the tumor ([8]; toxic dose, total amount 1560 nmol): could not eradicate the tumor | T/C value on MXT cell line ([9]; 3 × 10^-8 M, 26 hr): 90 | T/C value on MXT cell line ([9]; 3 × 10^-8 M, 50 hr): 60 | T/C value on MXT cell line ([9]; 10^-7 M, 26 hr): 59 | T/C value on MXT cell line ([9]; 10^-7 M, 50 hr): 43 | T/C value on MXT cell line ([9]; 10^-8 M, 26 hr): 85 | T/C value on MXT cell line ([9]; 10^-8 M, 50 hr): 74

CC(C)[C@@H]1NC(=O)[C@H](CCCCN)NC(=O)[C@@H](Cc2c[nH]c3ccccc23)NC(=O)[C@H](Cc2ccc(O)cc2)NC(=O)[C@@H](NC(=O)[C@H](N)Cc2ccccc2)CSSC[C@@H](C(=O)N[C@H](C(N)=O)[C@@H](C)O)NC1=O [Compound S-121]
GH release induced by 3 min administration of 1 nM hGH-RH(1-29)NH2 [4, 17]: 0% | GH release induced by 3 min administration of 1 nM hGH-RH(1-29)NH2 [4, 18]: 90% | GH release induced by 3 min administration of 1 nM hGH-RH(1-29)NH2 [4, 19]: 89.7% | T/C Value ([5]; 10^-6 M, incubation 28 h): 76 | T/C Value ([5]; 10^-6 M, incubation 76 h): 96
